Experimental data taken from publication PMC10218596 (International Journal of Molecular Sciences, 2023).

Columns and labels:
hα6/α3β4 = biological target: T1, hα6/α3β4 (Homo sapiens, UniProt P30926+P32297+Q15825); test: Electrophysiological assay, ACh concentration-response (Xenopus oocytes); assay type: cell-based; details: ACh on hα6/α3β4
T1 construct: splicing the N-terminal extracellular domain of the α6 subunit with the α3 subunit; host or cells: Xenopus laevis oocytes injected with cRNA (1:1)

h[α6I56V/α3]β4 = h[α6I56V/α3]β4 (Homo sapiens, UniProt P30926+Q15825, I89V, form not given); assay type: cell-based; details: ACh on h[α6I56V/α3]β4
Sequence of h[α6I56V/α3]β4 (Q15825 26-239 I89V, form open): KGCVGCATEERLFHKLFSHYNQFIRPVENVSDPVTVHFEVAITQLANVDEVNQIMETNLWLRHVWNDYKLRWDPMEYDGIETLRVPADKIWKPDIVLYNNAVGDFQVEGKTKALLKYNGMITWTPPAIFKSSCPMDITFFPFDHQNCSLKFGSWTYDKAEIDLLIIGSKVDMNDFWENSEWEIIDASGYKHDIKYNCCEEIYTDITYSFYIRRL
Sequence of h[α6I56V/α3]β4 (P30926 22-498, form open): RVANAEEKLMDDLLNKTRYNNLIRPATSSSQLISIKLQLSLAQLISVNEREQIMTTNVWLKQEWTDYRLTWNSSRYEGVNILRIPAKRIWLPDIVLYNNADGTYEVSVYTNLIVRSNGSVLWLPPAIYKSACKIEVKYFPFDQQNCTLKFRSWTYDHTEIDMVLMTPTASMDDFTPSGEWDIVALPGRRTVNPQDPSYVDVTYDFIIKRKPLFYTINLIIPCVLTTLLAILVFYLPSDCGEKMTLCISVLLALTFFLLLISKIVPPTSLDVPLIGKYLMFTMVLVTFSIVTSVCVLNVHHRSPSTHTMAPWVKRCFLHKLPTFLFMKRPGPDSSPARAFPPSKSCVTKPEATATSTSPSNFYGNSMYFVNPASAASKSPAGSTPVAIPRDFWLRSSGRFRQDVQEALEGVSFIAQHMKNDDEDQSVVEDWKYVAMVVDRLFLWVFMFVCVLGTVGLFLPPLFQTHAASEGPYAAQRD
Sequence of h[α6I56V/α3]β4 (P32297 241-505 partner, form open): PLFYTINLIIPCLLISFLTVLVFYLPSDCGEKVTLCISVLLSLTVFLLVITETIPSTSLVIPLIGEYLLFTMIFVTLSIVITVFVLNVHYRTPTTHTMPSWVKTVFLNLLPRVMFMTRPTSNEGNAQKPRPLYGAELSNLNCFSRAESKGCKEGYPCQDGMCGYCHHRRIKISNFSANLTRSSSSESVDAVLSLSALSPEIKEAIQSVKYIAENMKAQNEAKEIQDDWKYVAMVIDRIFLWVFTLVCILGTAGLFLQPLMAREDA

T1 sequence (Q15825+P32297 fused with the stated changes): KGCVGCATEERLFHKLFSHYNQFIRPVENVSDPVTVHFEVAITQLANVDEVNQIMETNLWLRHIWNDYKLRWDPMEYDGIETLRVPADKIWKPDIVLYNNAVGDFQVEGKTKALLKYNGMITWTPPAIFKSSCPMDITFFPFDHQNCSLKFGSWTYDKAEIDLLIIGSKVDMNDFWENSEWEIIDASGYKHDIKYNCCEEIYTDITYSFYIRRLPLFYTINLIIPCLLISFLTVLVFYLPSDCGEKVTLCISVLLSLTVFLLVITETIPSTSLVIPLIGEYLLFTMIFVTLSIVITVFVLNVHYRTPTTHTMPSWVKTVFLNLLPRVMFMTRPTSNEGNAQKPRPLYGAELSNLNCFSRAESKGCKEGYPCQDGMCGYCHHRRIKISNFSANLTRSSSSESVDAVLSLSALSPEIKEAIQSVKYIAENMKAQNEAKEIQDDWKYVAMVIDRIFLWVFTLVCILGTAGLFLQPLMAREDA
T1 sequence (P30926 22-498): as the sequence (P30926 22-498, form open) above

CC(=O)OCC[N+](C)(C)C [ACh, acetylcholine chloride]
Hill Slope (hα6/α3β4): 1.4 (1.2–1.7) | Hill Slope (h[α6I56V/α3]β4): 1.3 (1.1–1.5)
